# Reference: the Kinase Knowledgebase extract (Sharma et al. 2016)
# Biological target: ROCK2 (human) (UniProt O75116)
# Assay: Inhibition of ROCK2 Kinase Activity
# Sequence of ROCK2 (human) (O75116 whole entry, looked up): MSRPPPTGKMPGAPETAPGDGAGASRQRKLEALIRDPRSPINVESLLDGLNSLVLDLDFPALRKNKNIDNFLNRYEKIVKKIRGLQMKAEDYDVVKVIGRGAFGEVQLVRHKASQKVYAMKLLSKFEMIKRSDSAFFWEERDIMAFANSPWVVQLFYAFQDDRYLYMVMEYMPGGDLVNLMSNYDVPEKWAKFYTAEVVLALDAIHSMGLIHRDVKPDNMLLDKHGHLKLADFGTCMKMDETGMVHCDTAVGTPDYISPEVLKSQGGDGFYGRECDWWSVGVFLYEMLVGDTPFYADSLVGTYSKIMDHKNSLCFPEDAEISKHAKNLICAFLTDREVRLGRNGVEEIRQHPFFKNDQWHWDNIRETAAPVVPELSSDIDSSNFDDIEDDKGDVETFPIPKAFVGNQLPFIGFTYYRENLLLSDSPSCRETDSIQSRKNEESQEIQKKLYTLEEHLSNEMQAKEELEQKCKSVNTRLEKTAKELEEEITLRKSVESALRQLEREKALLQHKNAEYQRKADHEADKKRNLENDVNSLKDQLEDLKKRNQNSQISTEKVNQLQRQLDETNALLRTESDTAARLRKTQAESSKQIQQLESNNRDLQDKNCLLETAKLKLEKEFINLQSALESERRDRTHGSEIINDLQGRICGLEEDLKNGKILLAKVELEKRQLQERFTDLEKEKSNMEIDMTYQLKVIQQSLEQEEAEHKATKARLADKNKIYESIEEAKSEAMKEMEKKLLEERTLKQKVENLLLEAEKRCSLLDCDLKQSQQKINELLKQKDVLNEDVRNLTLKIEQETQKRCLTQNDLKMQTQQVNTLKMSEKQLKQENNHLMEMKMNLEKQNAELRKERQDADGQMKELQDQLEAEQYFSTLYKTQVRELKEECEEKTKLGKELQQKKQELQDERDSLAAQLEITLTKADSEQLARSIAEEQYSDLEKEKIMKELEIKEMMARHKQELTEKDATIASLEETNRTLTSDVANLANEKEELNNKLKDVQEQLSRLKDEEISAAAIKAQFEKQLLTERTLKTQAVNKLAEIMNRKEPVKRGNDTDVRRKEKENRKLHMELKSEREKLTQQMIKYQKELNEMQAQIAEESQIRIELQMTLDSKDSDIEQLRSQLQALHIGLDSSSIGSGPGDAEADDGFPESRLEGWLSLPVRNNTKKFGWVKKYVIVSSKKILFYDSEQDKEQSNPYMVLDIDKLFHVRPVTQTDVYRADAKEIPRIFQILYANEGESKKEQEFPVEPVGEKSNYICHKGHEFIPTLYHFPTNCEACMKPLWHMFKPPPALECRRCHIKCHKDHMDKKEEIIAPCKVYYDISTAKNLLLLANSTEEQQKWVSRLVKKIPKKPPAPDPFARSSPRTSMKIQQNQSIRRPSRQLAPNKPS
row,Compound,IC50 [µM]
1,O=C(NCc1nc(-c2c[nH]c3ncccc23)n[nH]1)c1cc2cc(Cl)ccc2o1,> 5
2,O=C(Cc1ccc(Br)cc1)NCc1nc(-c2c[nH]c3ncccc23)n[nH]1,> 5
3,CC(C)(C)OC(=O)NCC(=O)NCc1nc(-c2c[nH]c3ncccc23)n[nH]1,> 5
4,Cc1cccc(CCC(=O)NCc2nc(-c3ccncc3)n[nH]2)c1,> 5
5,O=C(NCc1nc(-c2c[nH]c3ncccc23)n[nH]1)c1cc([N+](=O)[O-])ccc1Cl,> 5
6,O=C(NCc1nc(-c2ccncc2)n[nH]1)C(O)CCl (centres undefined),> 5
7,COc1cc(Cl)ccc1C(=O)NCc1nc(-c2ccncc2)n[nH]1,> 5
8,O=C(NCc1nnc(-c2ccnc3[nH]ccc23)o1)c1ccc(O)cc1O,≤ 5
9,O=C(Cc1ccc2c(c1)OCO2)NCc1nc(-c2c[nH]c3ncccc23)n[nH]1,> 5
10,O=C(NCc1nc(-c2ccncc2)n[nH]1)c1c2ccccc2cc2ccccc12,> 5
11,O=C(NCc1nc(-c2c[nH]c3ncccc23)n[nH]1)c1ccc2ncccc2c1,> 5
12,CC(C)c1cc(C(=O)NCc2nc(-c3c[nH]c4ncccc34)n[nH]2)c(O)c(C(C)C)c1,> 5
13,CC(CC(=O)NCc1nc(-c2c[nH]c3ncccc23)n[nH]1)CC(C)(C)C (centres undefined),> 5
14,COc1cc(C(=O)NCc2nc(-c3ccncc3)n[nH]2)cc(Cl)n1,> 5
15,COc1ccccc1C=CC(=O)NCc1nc(-c2ccncc2)n[nH]1,> 5
16,O=C(NCc1nc(-c2ccncc2)n[nH]1)c1ccccc1,> 5
17,N#Cc1cccc(C(=O)NCc2nc(-c3c[nH]c4ncccc34)n[nH]2)c1,> 5
18,CC(C)(C)OC(=O)N1CCCCC1C(=O)NCc1nc(-c2c[nH]c3ncccc23)n[nH]1 (centres undefined),> 5
19,O=C(NCc1nc(-c2c[nH]c3ncccc23)n[nH]1)c1ccc(Cl)c(Br)c1,> 5
20,O=C(NCc1nc(-c2ccncc2)c[nH]1)c1cccs1,≤ 5
21,CC1=NN(c2ccc(C(=O)NCc3nc(-c4ccncc4)n[nH]3)cc2)C(=O)C1,> 5
22,O=C(NCc1nc(-c2ccncc2)n[nH]1)c1ccsc1,≤ 5
23,O=C(NCc1nc(-c2c[nH]c3ncccc23)n[nH]1)c1ccc(OCc2ccccc2)cc1,> 5
24,O=C(NCc1nc(-c2c[nH]c3ncccc23)n[nH]1)c1ccccc1Cc1ccccc1,> 5
25,COc1ccc(NC(=O)NCc2nc(-c3ccncc3)n[nH]2)c(OC)c1,> 5
26,COc1ccc(C(=O)NCc2nc(-c3c[nH]c4ncccc34)n[nH]2)c(OC)c1,> 5
27,O=C(NCc1nc(-c2ccncc2)n[nH]1)c1c(Cl)cc(Cl)cc1Cl,> 5

row,Compound,IC50 [µM]
1,O=C(NCc1nc(-c2ccncc2)n[nH]1)c1ccc2ccccc2c1O,≤ 5
2,O=CC(=O)NCc1nc(-c2c[nH]c3ncccc23)n[nH]1,> 5
3,O=C(NCc1nc(-c2c[nH]c3ncccc23)n[nH]1)C1CCc2ccccc21 (centres undefined),> 5
4,O=C(NCc1nc(-c2c[nH]c3ncccc23)n[nH]1)c1ccc(Cl)cc1O,> 5
5,O=C(NCc1nc(-c2c[nH]c3ncccc23)n[nH]1)c1cc(O)ccc1O,> 5
6,Cc1ccccc1C(=O)NCc1nc(-c2ccncc2)n[nH]1,> 5
7,COc1cc(OC)cc(C(=O)NCc2nc(-c3ccncc3)n[nH]2)c1,> 5
8,CS(=O)(=O)Nc1cccc(C(=O)NCc2nc(-c3c[nH]c4ncccc34)n[nH]2)c1,≤ 5
9,O=C(NCc1nc(-c2c[nH]c3ncccc23)n[nH]1)C1CCCN1C(=O)OCc1ccccc1 (centres undefined),> 5
10,COc1ccc2cc(C(C)C(=O)NCc3nc(-c4ccncc4)n[nH]3)ccc2c1 (centres undefined),> 5
11,c1ccc2c(NCc3nc(-c4ccncc4)n[nH]3)n[nH]c2c1,> 5
12,CC(C)(C)OC(=O)NC(Cc1ccc(O)cc1)C(=O)NCc1nc(-c2c[nH]c3ncccc23)n[nH]1 (centres undefined),> 5
13,Cc1cccc(C(=O)NCc2nc(-c3ccncc3)n[nH]2)c1,> 5
14,CC(C)c1cc(C(=O)NCc2nc(-c3ccncc3)n[nH]2)c(O)c(C(C)C)c1,> 5
15,O=C(NCc1nc(-c2c[nH]c3ncccc23)n[nH]1)c1ccc2cccc(O)c2n1,> 5
16,O=C(CCc1nc(-c2ccncc2)n[nH]1)c1ccc(O)cc1,≤ 5
17,O=C(NCc1nc(-c2ccncc2)n[nH]1)c1ccc(Br)cc1,> 5
18,O=C(NCc1nc(-c2c[nH]c3ncccc23)n[nH]1)c1cc([N+](=O)[O-])ccc1F,> 5
19,O=C(NCc1nc(-c2c[nH]c3ncccc23)n[nH]1)c1ccc(Cl)nc1,> 5
20,CC(C)c1cccc(C(=O)NCc2nc(-c3ccncc3)n[nH]2)c1O,≤ 5
21,CC(C)c1ccc(C(=O)NCc2nc(-c3ccncc3)n[nH]2)cc1,> 5
22,O=C(C=Cc1ccccc1Cl)NCc1nc(-c2c[nH]c3ncccc23)n[nH]1,> 5
23,O=C(NCc1nc(-c2ccncc2)n[nH]1)C(Cl)(Cl)Cl,> 5
24,Cc1ccc(F)cc1C(=O)NCc1nc(-c2ccncc2)n[nH]1,> 5
25,Oc1ccc(C(O)CCc2nc(-c3ccncc3)n[nH]2)cc1 (centres undefined),> 5
26,O=C(NCc1nc(-c2ccncc2)n[nH]1)c1cc(F)c(F)cc1[N+](=O)[O-],> 5
27,COc1ccccc1CC(=O)NCc1nc(-c2c[nH]c3ncccc23)n[nH]1,> 5
